This experiment addresses T1, HDAC6 enzyme (Homo sapiens, UniProt Q9UBN7).
T1 construct: transducing full length HDAC6 gene into Sf-9 insect cells; GST; purchased SignalChem; host or cells: Sf-9 insect cells
T1 sequence (Q9UBN7 1-1215): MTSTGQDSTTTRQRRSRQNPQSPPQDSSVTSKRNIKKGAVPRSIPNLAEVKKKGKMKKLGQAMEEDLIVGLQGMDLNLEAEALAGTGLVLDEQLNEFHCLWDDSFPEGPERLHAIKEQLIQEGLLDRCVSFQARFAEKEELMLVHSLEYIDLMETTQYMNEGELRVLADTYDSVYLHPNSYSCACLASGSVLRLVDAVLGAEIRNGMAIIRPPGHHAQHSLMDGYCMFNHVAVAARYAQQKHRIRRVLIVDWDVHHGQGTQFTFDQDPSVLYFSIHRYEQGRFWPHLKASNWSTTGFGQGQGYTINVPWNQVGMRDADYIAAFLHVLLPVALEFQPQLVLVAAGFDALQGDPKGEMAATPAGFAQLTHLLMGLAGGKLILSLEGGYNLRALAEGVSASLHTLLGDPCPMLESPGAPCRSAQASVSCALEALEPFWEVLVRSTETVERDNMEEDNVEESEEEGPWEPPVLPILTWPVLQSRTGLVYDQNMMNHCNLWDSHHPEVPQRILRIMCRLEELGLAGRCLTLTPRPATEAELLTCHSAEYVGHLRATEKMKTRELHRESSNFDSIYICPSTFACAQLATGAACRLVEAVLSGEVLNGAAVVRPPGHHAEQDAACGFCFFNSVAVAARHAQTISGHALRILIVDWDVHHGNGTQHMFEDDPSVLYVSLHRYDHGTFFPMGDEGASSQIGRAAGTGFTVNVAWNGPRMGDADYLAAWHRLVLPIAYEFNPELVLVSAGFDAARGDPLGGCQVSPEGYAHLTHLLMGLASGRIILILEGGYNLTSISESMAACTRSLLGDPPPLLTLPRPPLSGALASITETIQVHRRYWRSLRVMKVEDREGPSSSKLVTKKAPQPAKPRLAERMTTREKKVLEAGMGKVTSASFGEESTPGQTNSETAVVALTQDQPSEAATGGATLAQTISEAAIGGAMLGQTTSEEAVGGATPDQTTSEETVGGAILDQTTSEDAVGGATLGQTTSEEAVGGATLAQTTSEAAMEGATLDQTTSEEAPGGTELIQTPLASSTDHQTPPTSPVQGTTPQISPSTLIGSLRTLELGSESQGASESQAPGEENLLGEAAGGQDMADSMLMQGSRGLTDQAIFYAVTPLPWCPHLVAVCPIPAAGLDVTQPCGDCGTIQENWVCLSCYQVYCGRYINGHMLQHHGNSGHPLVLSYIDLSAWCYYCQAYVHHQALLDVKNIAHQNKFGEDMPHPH
Nature of the experiment: HDAC6 enzyme inhibitory activity (HDAC-Glo I/II Assay kit). It is filed as biochemical. The conditions noted are these: 10 μM; wells without enzyme = 100% inhibition; read-out: HDAC6 inhibitory rate (%) (10 μM). In outline:
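Inhibition is calculated as relative activity, taking luminescence in enzyme-free wells as complete inhibition. The enzyme, full-length and GST-purified after Sf-9 expression, was exposed to compound for 60 min at room temperature before a 20 min HDAC-Glo reaction.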
For `O=C1c2cc(-c3nnc(C(F)F)o3)ccc2CN1c1ccccc1-c1cccc2c1CCO2` [Example 288, 6-(5-(difluoromethyl)-1,3,4-oxadiazol-2-yl)-2-(2-(2,3-dihydro-1-benzofuran-4-yl)phenyl)isoindolin-1-one], the inhibition at 10 µM was 102%.
On to `O=C1c2cc(-c3nnc(C(F)F)o3)ccc2CN1c1ccccc1-c1cccc2c1OCC2` [Example 289, 6-(5-(difluoromethyl)-1,3,4-oxadiazol-2-yl)-2-(2-(2,3-dihydro-1-benzofuran-7-yl)phenyl)isoindolin-1-one], for which the inhibition at 10 µM is 101%.
The figure for `CCOc1cc(-c2ccccc2N2Cc3ccc(-c4nnc(C(F)F)o4)cc3C2=O)ccn1` [Example 290, 6-(5-(difluoromethyl)-1,3,4-oxadiazol-2-yl)-2-(2-(2-ethoxypyridin-4-yl)-phenyl)isoindolin-1-one] is 99%; for `CCOc1cnccc1-c1ccccc1N1Cc2ccc(-c3nnc(C(F)F)o3)cc2C1=O` [Example 291, 6-(5-(difluoromethyl)-1,3,4-oxadiazol-2-yl)-2-(2-(3-ethoxypyridin-4-yl)-phenyl)isoindolin-1-one] it is 98%; for `O=C1c2cc(-c3nnc(C(F)F)o3)ccc2CN1c1ccccc1-c1ccc(C(F)F)cc1` [Example 292, 2-(4′-(difluoromethyl)-biphenyl-2-yl)-6-(5-(difluoromethyl)-1,3,4-oxadiazol-2-yl)isoindolin-1-one] it is 97%.
Turning to `O=C1c2cc(-c3nnc(C(F)F)o3)ccc2CN1c1ccccc1-c1cccc(C(F)F)c1` [Example 293, 2-(3′-(difluoromethyl)-biphenyl-2-yl)-6-(5-(difluoromethyl)-1,3,4-oxadiazol-2-yl)isoindolin-1-one], the inhibition at 10 µM was found to be 100%.
The figure for `CC(C)Oc1cc(-c2ccccc2N2Cc3ccc(-c4nnc(C(F)F)o4)cc3C2=O)ccn1` [Example 294, 6-(5-(difluoromethyl)-1,3,4-oxadiazol-2-yl)-2-(2-(2-isopropoxypyridin-4-yl)phenyl)isoindolin-1-one] is 100%.
To `COc1ncc(Cl)cc1-c1ccccc1N1Cc2ccc(-c3nnc(C(F)F)o3)cc2C1=O` [Example 295, 2-(2-(5-chloro-2-methoxy-pyridin-3-yl)phenyl)-6-(5-(difluoromethyl)-1,3,4-oxadiazol-2-yl)isoindolin-1-one] belongs 102%; to `O=C1c2cc(-c3nnc(C(F)F)o3)ccc2CN1c1ccccc1-c1cccc(OC(F)F)c1` [Example 296, 2-(3′(difluoromethoxy)-biphenyl-2-yl)-6-(5-(difluoromethyl)-1,3,4-oxadiazol-2-yl)isoindolin-1-one], 101%.
To `O=C1c2cc(-c3nnc(C(F)F)o3)ccc2CN1c1ccccc1-c1cncc(C(F)(F)F)c1` [Example 297, 6-(5-(difluoromethyl)-1,3,4-oxadiazol-2-yl)-2-(2-(5-(trifluoromethyl)pyridin-3-yl)phenyl)isoindolin-1-one] belongs 98%.
With `O=C1c2cc(-c3nnc(C(F)F)o3)ccc2CN1c1ccccc1-c1ccccc1OC(F)(F)F` [Example 298, 6-(5-(difluoromethyl)-1,3,4-oxadiazol-2-yl)-2-(2′-(trifluoromethoxy)biphenyl-2-yl)isoindolin-1-one], the inhibition at 10 µM was determined as 100%.
The figure for `O=C1c2cc(-c3nnc(C(F)F)o3)ccc2CN1c1ccccc1-c1ccc(OC(F)(F)F)cc1` [Example 299, 6-(5-(difluoromethyl)-1,3,4-oxadiazol-2-yl)-2-(4′-(trifluoromethoxy)biphenyl-2-yl)isoindolin-1-one] is 94%.
To `O=C1c2cc(-c3nnc(C(F)F)o3)ccc2CN1c1ccccc1-c1cccc(OC(F)(F)F)c1` [Example 300, 6-(5-(difluoromethyl)-1,3,4-oxadiazol-2-yl)-2-(3′-(trifluoromethoxy)biphenyl-2-yl)isoindolin-1-one] belongs 97%.

These data come from patent US10435399B2, “HDAC6 inhibitory heterocyclic compound” (TAKEDA PHARMACEUTICAL COMPANY LIMITED, priority 2017, dated 2019).
